Patent US6936585B2, “Corticotropin releasing factor 2 receptor agonists” (priority 2002, dated 2005)
Where two headings read alike, the source gives them in different places. Peptide text beside a SMILES is read from it.

Key:
CRF2R = target: T1, CRF2R (Homo sapiens, UniProt Q13324); test: CRF2R agonist activation (EC50 / Emax), called comparative CRF binding; format: cell-based; conditions: for Emax: read-out: CRF2R Emax
T1 sequence (Q13324 1-411): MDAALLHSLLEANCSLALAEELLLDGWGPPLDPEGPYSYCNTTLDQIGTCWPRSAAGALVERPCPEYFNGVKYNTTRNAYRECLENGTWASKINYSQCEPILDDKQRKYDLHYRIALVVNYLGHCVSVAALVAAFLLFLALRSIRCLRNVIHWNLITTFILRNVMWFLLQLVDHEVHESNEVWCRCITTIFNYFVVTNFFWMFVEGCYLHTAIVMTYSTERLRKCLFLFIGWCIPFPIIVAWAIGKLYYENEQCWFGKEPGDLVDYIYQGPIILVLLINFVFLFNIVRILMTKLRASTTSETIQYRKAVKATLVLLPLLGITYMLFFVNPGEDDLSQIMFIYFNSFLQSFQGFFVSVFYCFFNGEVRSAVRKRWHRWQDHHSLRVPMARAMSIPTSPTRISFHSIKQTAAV
Excerpt: (§1) The pharmacological activity and selectivity of the peptides of present invention can be determined using published test procedures. See, e.g, U.S. patent application Ser. No. 09/799,978 (now issued U.S. Pat. No. 6,670,140). Because CRF2R and CRF1R are homologous proteins, it is expected that a certain proportion of agonists for CRF2R will also function as agonists of CRF1R. As discussed above, activation of CRF1R induces activation of the HPA axis since increased corticosteroid production leads to skeletal muscle atrophy. In most cases in which an increase in muscle mass or function is desired, it is not desirable to activate the HPA axis.
(§2) Cell-based assays include the steps of contacting cells which express CRF1R or CRF2R with a peptide of the present invention or control and measuring activation of the CRFR by measuring the expression or activity of components of the CRFR signal transduction pathways.
(§3) For example, after contact with a peptide of the present invention, lysates of the cells can be prepared and assayed for induction of cAMP. cAMP is induced in response to Gαs activation. Because Gαs is activated by receptors other than CRFR and because a test peptide may be exerting its effect through CRFRs or by another mechanism, two control comparisons are relevant for determining whether the peptide increases levels of cAMP via activation of a CRFR. One control compares the cAMP level of cells contacted with the peptide and the cAMP level of cells contacted with a control compound (i.e., the vehicle in which the peptide is dissolved).
(§4) In one example, cAMP induction is measured with the use of DNA constructs containing the cAMP responsive element linked to any of a variety of reporter genes can be introduced into cells expressing CRFRs. Such reporter genes include, but are not limited to, chloramphenicol acetyltransferase (CAT), luciferase, glucuronide synthetase, growth hormone, fluorescent proteins (e.g., Green Fluorescent Protein), or alkaline phosphatase. Following exposure of the cells to the peptide, the level of reporter gene expression can be quantitated to determine the peptide's ability to increase cAMP levels and thus determine the peptide's ability to activate the CRFR.
(§5) In addition to using cells expressing full length CRFRs, cells can be engineered which express CRFRs containing the ligand binding domain of the receptor coupled to, or physically modified to contain, reporter elements or to interact with signaling proteins. For example, a wild type CRFR or CRFR fragment can be fused to a G-protein resulting in activation of the fused G-protein upon agonist binding to the CRFR portion of the fusion protein. […] In addition, alternative pathways for induction of the CRE reporter could be eliminated to reduce basal levels.

CRF1R = target: T2, CRF1R (Homo sapiens, UniProt P34998); test: CRF1R agonist activation (EC50 / Emax), called comparative CRF binding; format: cell-based; conditions: for Emax: read-out: CRF1R Emax
T2 sequence (P34998 24-415): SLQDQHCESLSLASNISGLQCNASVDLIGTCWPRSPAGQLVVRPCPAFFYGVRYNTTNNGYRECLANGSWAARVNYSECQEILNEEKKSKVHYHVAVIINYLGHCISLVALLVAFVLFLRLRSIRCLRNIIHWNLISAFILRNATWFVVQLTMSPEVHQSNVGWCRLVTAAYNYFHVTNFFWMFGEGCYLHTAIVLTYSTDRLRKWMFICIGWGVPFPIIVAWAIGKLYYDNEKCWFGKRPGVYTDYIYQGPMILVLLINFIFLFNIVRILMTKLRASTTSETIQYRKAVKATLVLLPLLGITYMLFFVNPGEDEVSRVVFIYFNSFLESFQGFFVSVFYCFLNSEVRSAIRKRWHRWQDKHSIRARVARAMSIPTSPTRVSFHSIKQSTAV
Excerpt: as §1, §2, §3, §4, §5

Structure (SMILES)	Emax (CRF2R) [%]	Emax (CRF1R) [%]	EC50 (CRF2R; read-out: CRF2R EC50) [nM]	EC50 (CRF1R; read-out: CRF1R EC50) [nM]	EC50 (CRF2R) [nM]	EC50 (CRF1R) [nM]
CC[C@H](C)[C@H](NC(=O)[C@H](C)NC(=O)[C@H](CC(N)=O)NC(=O)[C@H](CCC(N)=O)NC(=O)[C@H](CCC(=O)O)NC(=O)[C@H](C)NC(=O)[C@H](CCCNC(=N)N)NC(=O)[C@H](CCC(=O)O)NC(=O)[C@H](CCCNC(=N)N)NC(=O)[C@H](CCC(N)=O)NC(=O)[C@H](CO)NC(=O)[C@H](CCC(N)=O)NC(=O)[C@@H](NC(=O)[C@H](CCCNC(=N)N)NC(=O)[C@H](C)NC(=O)[C@H](CC(C)C)NC(=O)[C@H](CCC(=O)O)NC(=O)[C@H](CC(C)C)NC(=O)[C@H](CC(C)C)NC(=O)[C@@H](NC(=O)[C@H](CCCNC(=N)N)NC(=O)[C@H](CC(C)C)NC(=O)[C@H](CC(C)C)NC(=O)[C@H](CCC(N)=O)NC(=O)[C@H](CC(C)C)NC(=O)[C@@H]1CCCN1C(=O)[C@H](CC(C)C)NC(=O)[C@H](CC(=O)O)NC(=O)[C@@H](NC(=O)[C@H](CO)NC(=O)[C@H](CC(C)C)NC(=O)[C@H](CO)NC(=O)[C@@H]1CCCN1C(=O)[C@H](CC(N)=O)NC(=O)[C@@H](N)CC(=O)O)[C@@H](C)CC)[C@@H](C)O)[C@@H](C)O)C(=O)N[C@H](C(=O)N[C@@H](Cc1ccccc1)C(=O)N[C@@H](C)C(=O)N[C@@H](CO)C(=O)N[C@H](C(N)=O)C(C)C)[C@@H](C)CC [compound 176] (H-DNPSLSIDLPLQLLRTLLELARTQSQRERAEQNAIIFASV-NH2; N-terminus assumed)	90.2	26.9	–	–	–	–
CC[C@H](C)[C@H](NC(=O)[C@H](CCCNC(=N)N)NC(=O)[C@H](C)NC(=O)[C@H](CC(N)=O)NC(=O)[C@H](CCC(N)=O)NC(=O)[C@H](CCC(=O)O)NC(=O)[C@H](C)NC(=O)[C@H](CCCNC(=N)N)NC(=O)[C@H](CCC(=O)O)NC(=O)[C@H](CCCNC(=N)N)NC(=O)[C@H](CCC(N)=O)NC(=O)[C@H](CO)NC(=O)[C@H](CCC(N)=O)NC(=O)[C@@H](NC(=O)[C@H](CCCCN)NC(=O)[C@H](CCC(=O)O)NC(=O)[C@H](CC(C)C)NC(=O)[C@H](CCC(=O)O)NC(=O)[C@H](CC(C)C)NC(=O)[C@H](CC(C)C)NC(=O)[C@@H](NC(=O)[C@H](CCCNC(=N)N)NC(=O)[C@H](CC(C)C)NC(=O)[C@H](CC(C)C)NC(=O)[C@H](Cc1ccccc1)NC(=O)[C@H](CC(C)C)NC(=O)[C@@H]1CCCN1C(=O)[C@H](CC(C)C)NC(=O)[C@H](CC(=O)O)NC(=O)[C@@H](NC(=O)[C@H](CO)NC(=O)[C@H](CC(C)C)NC(=O)[C@H](CO)NC(=O)[C@@H]1CCCN1C(=O)[C@H](CC(N)=O)NC(=O)[C@@H](N)CC(=O)O)[C@@H](C)CC)[C@@H](C)O)[C@@H](C)O)C(=O)N[C@@H](Cc1ccccc1)C(=O)N[C@@H](C)C(=O)N[C@@H](CCCNC(=N)N)C(=O)N[C@H](C(N)=O)C(C)C [compound 334] (H-DNPSLSIDLPLFLLRTLLELEKTQSQRERAEQNARIFARV-NH2; N-terminus assumed)	93.5	82.6	13.2	≥ 1000	–	–
CC[C@H](C)[C@H](N)C(=O)N[C@H](C(=O)N[C@@H](CC(C)C)C(=O)N[C@@H](CO)C(=O)N[C@@H](CC(C)C)C(=O)N[C@@H](CC(=O)O)C(=O)N[C@H](C(=O)N1CCC[C@H]1C(=O)N[C@H](C(=O)NCC(=O)N[C@@H](CC(C)C)C(=O)N[C@@H](CC(C)C)C(=O)N[C@@H](CCC(N)=O)C(=O)N[C@H](C(=O)N[C@@H](CC(C)C)C(=O)N[C@@H](CC(C)C)C(=O)N[C@@H](CCC(=O)O)C(=O)N[C@@H](CCC(N)=O)C(=O)N[C@@H](C)C(=O)N[C@@H](CCCNC(=N)N)C(=O)N[C@@H](C)C(=O)N[C@@H](CCC(=O)O)C(=O)N[C@@H](C)C(=O)N[C@@H](C)C(=O)N[C@@H](CCCNC(=N)N)C(=O)N[C@@H](CCC(=O)O)C(=O)N[C@@H](CCC(N)=O)C(=O)N[C@@H](C)C(=O)N[C@H](C(=O)N[C@H](C(=O)N[C@@H](CC(N)=O)C(=O)N[C@@H](C)C(=O)N[C@@H](CCCNC(=N)N)C(=O)N[C@H](C(=O)N[C@@H](CC(C)C)C(=O)N[C@@H](C)C(=O)N[C@@H](CCCNC(=N)N)C(=O)N[C@H](C(N)=O)C(C)C)[C@@H](C)CC)[C@@H](C)O)[C@@H](C)O)[C@@H](C)CC)[C@@H](C)CC)C(C)C)C(C)C [compound 122] (H-IVLSLDVPIGLLQILLEQARAEAAREQATTNARILARV-NH2; N-terminus assumed)	97	10.7	–	–	–	–
CC[C@H](C)[C@H](NC(=O)[C@H](CCCNC(=N)N)NC(=O)[C@H](C)NC(=O)[C@H](CC(N)=O)NC(=O)[C@H](CCC(N)=O)NC(=O)[C@H](CCC(=O)O)NC(=O)[C@H](C)NC(=O)[C@H](CCCNC(=N)N)NC(=O)[C@H](CCC(=O)O)NC(=O)[C@H](CCCNC(=N)N)NC(=O)[C@H](CCC(N)=O)NC(=O)[C@H](CO)NC(=O)[C@H](CCC(N)=O)NC(=O)[C@@H](NC(=O)[C@H](CCCCN)NC(=O)[C@H](CCC(=O)O)NC(=O)[C@H](CC(C)C)NC(=O)[C@H](CCC(=O)O)NC(=O)[C@H](CC(C)C)NC(=O)[C@H](CC(C)C)NC(=O)[C@@H](NC(=O)[C@H](CCCNC(=N)N)NC(=O)[C@H](CC(C)C)NC(=O)[C@H](CC(C)C)NC(=O)[C@H](Cc1ccccc1)NC(=O)[C@H](CC(C)C)NC(=O)[C@@H]1CCCN1C(=O)[C@@H](NC(=O)[C@H](CC(=O)O)NC(=O)[C@@H](NC(=O)[C@H](CO)NC(=O)[C@H](CC(C)C)NC(=O)[C@H](CO)NC(=O)[C@@H]1CCCN1C(=O)[C@H](CC(N)=O)NC(=O)[C@@H](N)CC(=O)O)[C@@H](C)CC)C(C)C)[C@@H](C)O)[C@@H](C)O)C(=O)N[C@@H](Cc1ccccc1)C(=O)N[C@@H](C)C(=O)N[C@@H](CCCNC(=N)N)C(=O)N[C@H](C(N)=O)C(C)C [compound 385] (H-DNPSLSIDVPLFLLRTLLELEKTQSQRERAEQNARIFARV-NH2; N-terminus assumed)	100	46	–	–	10.3	≥ 1000
CC[C@H](C)[C@H](NC(=O)[C@H](CCCNC(=N)N)NC(=O)[C@H](C)NC(=O)[C@H](CC(N)=O)NC(=O)[C@H](CCC(N)=O)NC(=O)[C@H](CCC(=O)O)NC(=O)[C@H](C)NC(=O)[C@H](CCCNC(=N)N)NC(=O)[C@H](CCC(=O)O)NC(=O)[C@H](CCCNC(=N)N)NC(=O)[C@H](CCC(N)=O)NC(=O)[C@H](CO)NC(=O)[C@H](CCC(N)=O)NC(=O)[C@@H](NC(=O)[C@H](CCCCN)NC(=O)[C@H](CCC(=O)O)NC(=O)[C@H](CC(C)C)NC(=O)[C@H](CCC(=O)O)NC(=O)[C@H](CC(C)C)NC(=O)[C@H](CC(C)C)NC(=O)[C@@H](NC(=O)[C@H](CCCNC(=N)N)NC(=O)[C@H](CC(C)C)NC(=O)[C@H](CC(C)C)NC(=O)[C@@H](NC(=O)[C@H](CC(C)C)NC(=O)[C@@H]1CCCN1C(=O)[C@H](CC(C)C)NC(=O)[C@H](CC(=O)O)NC(=O)[C@@H](NC(=O)[C@H](CO)NC(=O)[C@H](CC(C)C)NC(=O)[C@H](CO)NC(=O)[C@@H]1CCCN1)[C@@H](C)CC)[C@@H](C)CC)[C@@H](C)O)[C@@H](C)O)C(=O)N[C@@H](Cc1ccccc1)C(=O)N[C@@H](C)C(=O)N[C@@H](CCCNC(=N)N)C(=O)N[C@H](C(N)=O)C(C)C [compound 332] (H-PSLSIDLPLILLRTLLELEKTQSQRERAEQNARIFARV-NH2; N-terminus assumed)	100	61.3	–	–	–	–
